Experimental data from patent publication US8722849B2, “Polypeptides” (Novo Nordisk A/S, priority 2011, dated 2014).
pEC50: −log10 of the molar value. Starred links: 1 amine or outer side, 2 acyl side, 3 side chain; linkers in the order of their positions; H or OH if unused. Positions of bridges follow the written chain, without caps; N, C: chain ends. Residues, ends and D or L forms follow the SMILES beside them. *: point of attachment. C20 diacid = O=C(O)CCCCCCCCCCCCCCCCCCC(=O)*; C18 diacid = O=C(O)CCCCCCCCCCCCCCCCC(=O)*; γGlu = O=C(O)[C@H](CCC(=O)[*:2])N[*:1]

Assays:
[1] = target: T1, rat amylin 3(a) receptor (rat calcitonin(a) receptor + rat RAMP3) (Rattus norvegicus, UniProt P32214+Q9JJ73); assay: Assay (II)b functional cAMP FlashPlate assay, rat amylin receptor; type: cell-based; settings: Table 11
T1 construct: expressed in transfected cells; host or cells: BHK tk'ts 13
T1 sequence (P32214 25-479 isoform P32214-2 limits assumed): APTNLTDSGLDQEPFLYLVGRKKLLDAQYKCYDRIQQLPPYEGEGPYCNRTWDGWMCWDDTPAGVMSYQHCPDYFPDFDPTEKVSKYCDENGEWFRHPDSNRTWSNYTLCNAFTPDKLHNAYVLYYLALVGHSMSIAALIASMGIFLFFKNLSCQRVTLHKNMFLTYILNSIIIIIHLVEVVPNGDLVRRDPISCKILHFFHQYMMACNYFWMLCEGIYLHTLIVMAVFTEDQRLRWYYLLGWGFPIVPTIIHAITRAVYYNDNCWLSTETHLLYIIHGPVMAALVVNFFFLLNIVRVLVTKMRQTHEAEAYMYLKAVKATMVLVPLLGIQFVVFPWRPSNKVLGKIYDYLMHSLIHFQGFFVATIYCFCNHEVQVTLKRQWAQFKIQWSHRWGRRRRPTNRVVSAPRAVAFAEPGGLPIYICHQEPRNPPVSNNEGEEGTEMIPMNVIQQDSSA
T1 sequence (Q9JJ73 23-147 partner): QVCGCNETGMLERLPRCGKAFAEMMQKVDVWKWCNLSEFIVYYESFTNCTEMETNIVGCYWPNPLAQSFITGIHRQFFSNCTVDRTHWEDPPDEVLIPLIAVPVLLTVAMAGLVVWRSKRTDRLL
Procedure, shortened: (§1)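 cAMP accumulation in transiently transfected BHK tk'ts 13 cells, 100.000 cells/well, expressing rat calcitonin(a) receptor or its RAMP3 co-expression form (amylin 3(a)): 30 min stimulation with IBMX, 24 hours post-transfection. Readout by competition of cellular versus radiolabelled cAMP in FlashPlates, scintillation counted after 3 h.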

[2] = target: T2, rat calcitonin (a) receptor (Rattus norvegicus, UniProt P32214); assay: Assay (II)b functional cAMP FlashPlate assay, rat calcitonin receptor; type: cell-based; settings: Table 11; read-out: CTa receptor rat EC50
T2 construct: expressed in transfected cells; host or cells: BHK tk'ts 13
T2 sequence (P32214 25-479 isoform P32214-2 limits assumed): T1 sequence (P32214 25-479 isoform P32214-2 limits assumed)
Procedure, shortened: as §1

[3] = Assay (III) ThT fibrillation assay for physical stability; type: physicochemical
Procedure, shortened: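 Freshly prepared formulations, pH-adjusted, with 1 μM ThT; four or eight replicates incubated at 37 °C under 960 rpm orbital shaking. Fluorescence (ex 444/em 485 nm) read every 20 min; […]. Peptide concentration measured by RP-HPLC before and after the run.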

| pEC50 [1] | pEC50 [2] | ThT pH 4.0 lag time ([3]; ThT fibrillation assay) | ThT pH 4.0 lag time (h) ([3]; ThT fibrillation assay) | ThT pH 4.0 lag time ([3]; Table 8) | SMILES |
| --- | --- | --- | --- | --- | --- |
| 10.42 | 8.63 | >45 h | >45 h |  | CC[C@H](C)[C@H](NC(=O)[C@@H]1CCCN1C(=O)CNC(=O)[C@H](Cc1ccccc1)NC(=O)[C@H](CC(N)=O)NC(=O)[C@H](CC(N)=O)NC(=O)[C@H](CO)NC(=O)[C@H](CO)NC(=O)[C@H](Cc1c[nH]cn1)NC(=O)[C@H](CCCNC(=N)N)NC(=O)[C@H](CC(C)C)NC(=O)[C@H](Cc1ccccc1)NC(=O)[C@H](CCC(=O)O)NC(=O)[C@H](C)NC(=O)[C@H](CC(C)C)NC(=O)[C@H](CCCNC(=N)N)NC(=O)[C@H](CCC(N)=O)NC(=O)[C@@H](NC(=O)[C@H](C)NC(=O)[C@@H]1CSSC[C@H](NC(=O)[C@H](CCCCN)NC(=O)CC[C@H](NC(=O)CCCCCCCCCCCCCCCCC(=O)O)C(=O)O)C(=O)N[C@@H](CC(N)=O)C(=O)N[C@@H]([C@@H](C)O)C(=O)N[C@@H](C)C(=O)N[C@@H]([C@@H](C)O)C(=O)N1)[C@@H](C)O)C(=O)N[C@@H](CC(C)C)C(=O)N1CCC[C@H]1C(=O)N1CCC[C@H]1C(=O)N[C@H](C(=O)N[C@@H](CC(N)=O)C(=O)N[C@H](C(=O)NCC(=O)N[C@@H](CO)C(=O)N[C@@H](Cc1c[nH]cn1)C(=O)N[C@H](C(=O)N[C@@H](Cc1ccc(O)cc1)C(N)=O)[C@@H](C)O)C(C)C)[C@@H](C)O [Example 61, N-alpha-[(S)-4-Carboxy-4-(17-carboxyheptadecanoylamino)butyryl]-[Glu14,Arg17,His35]-pramlintide] ({C18 diacid-γGlu}-KCNTATCATQRLAEFLRHSSNNFGPILPPTNVGSHTY-NH2; disulfide 2-7 (inferred)) |
| 9.55 | 7.75 | 30 h | 30 h | 30 h | CC[C@H](C)[C@H](NC(=O)[C@@H]1CCCN1C(=O)CNC(=O)[C@H](Cc1ccccc1)NC(=O)[C@H](CC(N)=O)NC(=O)[C@H](CC(N)=O)NC(=O)[C@H](CO)NC(=O)[C@H](CO)NC(=O)[C@H](Cc1c[nH]cn1)NC(=O)[C@H](CCCNC(=N)N)NC(=O)[C@H](CC(C)C)NC(=O)[C@H](Cc1ccccc1)NC(=O)[C@H](CCC(=O)O)NC(=O)[C@H](C)NC(=O)[C@H](CC(C)C)NC(=O)[C@H](CCCNC(=N)N)NC(=O)[C@H](CCC(N)=O)NC(=O)[C@@H](NC(=O)[C@H](C)NC(=O)[C@@H]1CSSC[C@H](NC(=O)[C@H](CCCCN)NC(=O)[C@H](CCC(=O)O)NC(=O)CC[C@H](NC(=O)CCCCCCCCCCCCCCCCC(=O)O)C(=O)O)C(=O)N[C@@H](CC(N)=O)C(=O)N[C@@H]([C@@H](C)O)C(=O)N[C@@H](C)C(=O)N[C@@H]([C@@H](C)O)C(=O)N1)[C@@H](C)O)C(=O)N[C@@H](CC(C)C)C(=O)N1CCC[C@H]1C(=O)N1CCC[C@H]1C(=O)N[C@H](C(=O)N[C@@H](CC(N)=O)C(=O)N[C@H](C(=O)NCC(=O)N[C@@H](CO)C(=O)N[C@@H](Cc1c[nH]cn1)C(=O)N[C@H](C(=O)N[C@@H](Cc1ccc(O)cc1)C(N)=O)[C@@H](C)O)C(C)C)[C@@H](C)O [Example 62, N-alpha-[(S)-4-Carboxy-4-(17-carboxyheptadecanoylamino)butyryl]-Glu-[Glu14,Arg17,His35]-pramlintide] ({C18 diacid-γGlu}-EKCNTATCATQRLAEFLRHSSNNFGPILPPTNVGSHTY-NH2; disulfide 3-8 (inferred); C-terminus assumed) |
| 9.70 | 8.88 | >45 h | >45 h |  | CC[C@H](C)[C@H](NC(=O)[C@@H]1CCCN1C(=O)CNC(=O)[C@H](Cc1ccccc1)NC(=O)[C@H](CC(N)=O)NC(=O)[C@H](CC(N)=O)NC(=O)[C@H](CO)NC(=O)[C@H](CO)NC(=O)[C@H](Cc1c[nH]cn1)NC(=O)[C@H](Cc1c[nH]cn1)NC(=O)[C@H](CC(C)C)NC(=O)[C@H](Cc1ccccc1)NC(=O)[C@H](CCC(=O)O)NC(=O)[C@H](C)NC(=O)[C@H](CC(C)C)NC(=O)[C@H](CCCNC(=N)N)NC(=O)[C@H](CCC(N)=O)NC(=O)[C@@H](NC(=O)[C@H](C)NC(=O)[C@@H]1CSSC[C@H](NC(=O)[C@H](Cc2c[nH]cn2)NC(=O)[C@H](Cc2c[nH]cn2)NC(=O)[C@H](Cc2c[nH]cn2)NC(=O)CC[C@H](NC(=O)CCCCCCCCCCCCCCCCCCC(=O)O)C(=O)O)C(=O)N[C@@H](CC(N)=O)C(=O)N[C@@H]([C@@H](C)O)C(=O)N[C@@H](C)C(=O)N[C@@H]([C@@H](C)O)C(=O)N1)[C@@H](C)O)C(=O)N[C@@H](CC(C)C)C(=O)N1CCC[C@H]1C(=O)N1CCC[C@H]1C(=O)N[C@H](C(=O)N[C@@H](CC(N)=O)C(=O)N[C@H](C(=O)NCC(=O)N[C@@H](CO)C(=O)N[C@@H](Cc1c[nH]cn1)C(=O)N[C@H](C(=O)N[C@@H](Cc1ccc(O)cc1)C(N)=O)[C@@H](C)O)C(C)C)[C@@H](C)O [Example 31, N-alpha-[(S)-4-Carboxy-4-(19-carboxynonadecanoylamino)butyryl]-His-His-[His1,Glu14,His17,His35]-pramlintide] ({C20 diacid-γGlu}-HHHCNTATCATQRLAEFLHHSSNNFGPILPPTNVGSHTY-NH2; disulfide 4-9 (inferred); C-terminus assumed) |
| 9.86 | 9.67 |  | 19 h |  | CC[C@H](C)[C@H](NC(=O)[C@@H]1CCCN1C(=O)CNC(=O)[C@H](Cc1ccccc1)NC(=O)[C@H](CC(N)=O)NC(=O)[C@H](CC(N)=O)NC(=O)[C@H](CO)NC(=O)[C@H](CO)NC(=O)[C@H](Cc1c[nH]cn1)NC(=O)[C@@H](NC(=O)[C@H](CC(C)C)NC(=O)[C@H](Cc1ccccc1)NC(=O)[C@H](CCC(=O)O)NC(=O)[C@H](C)NC(=O)[C@H](CC(C)C)NC(=O)[C@H](CCCNC(=N)N)NC(=O)[C@H](CCC(N)=O)NC(=O)[C@@H](NC(=O)[C@H](C)NC(=O)[C@@H]1CSSC[C@H](NC(=O)[C@H](CCCCN)NC(=O)CC[C@H](NC(=O)CCCCCCCCCCCCCCCCCCC(=O)O)C(=O)O)C(=O)N[C@@H](CC(N)=O)C(=O)N[C@@H]([C@@H](C)O)C(=O)N[C@@H](C)C(=O)N[C@@H]([C@@H](C)O)C(=O)N1)[C@@H](C)O)C(C)C)C(=O)N[C@@H](CC(C)C)C(=O)N1CCC[C@H]1C(=O)N1CCC[C@H]1C(=O)N[C@H](C(=O)N[C@@H](CC(N)=O)C(=O)N[C@H](C(=O)NCC(=O)N[C@@H](CO)C(=O)N[C@@H](Cc1c[nH]cn1)C(=O)N[C@H](C(=O)N[C@@H](Cc1ccc(O)cc1)C(N)=O)[C@@H](C)O)C(C)C)[C@@H](C)O [Example 93, N-alpha-[(S)-4-Carboxy-4-(19-carboxynonadecanoylamino)butyryl]-[Glu14,His35]-pramlintide] ({C20 diacid-γGlu}-KCNTATCATQRLAEFLVHSSNNFGPILPPTNVGSHTY-NH2; disulfide 2-7 (inferred); C-terminus assumed) |
